Reference: patent publication US20250154180A1, “CRK-LIKE (CRKL) ADAPTOR PROTEIN INHIBITORS AND METHODS OF MAKING AND USING THE SAME” (Rutgers, The State University of New Jersey, priority 2022, published 2025)
“Also recorded” adds a separate entry of the source. Counter-ions that a name gives are not always drawn. Like-named read-outs stand apart in the source and are kept apart here.

Tests used:
[1] = system: MDA-MB-231 cells; assay: XTT cell viability, MDA-MB-231; type: cell-based; details: 24 and 48 hours
Description: (§1) FIGS. 8A-8C show results using MDA-MB-231 cells (FIG. 8A) or BXPC3 cells (FIG. 8B), wherein the cells were treated with 5 μM of NC5, Compound III (referred to as “NC5-140-1” in FIGS. 8A-8C), and Compound I (referred to as “NC5-140-2” in FIGS. 8A-8C) for 24-48 hours, wherein the XTT assay was used to determine cell viability. The symbol indicates the significance of NC5 vs. Compounds I and/or III; *p<0.05. Data represent mean±SEM.
(§2) Compound embodiments, compound III and compound I, were also made and evaluated. TNBC cells and PDAC cells were treated with a serial dose of original NC5 and modified NC5 derivatives for 24 and 48 hours. The cell viability will be measured by XTT assay. […] Compound III is referred to as “NC5-140-1” and Compound I is referred to as “NC5-140-2” in FIGS. 8A-8C.

[2] = system: BXPC3 cells; assay: XTT cell viability, BXPC3; type: cell-based; details: 24 and 48 hours
Description: as §1, §2

[3] = system: Sk-Hep1 cells; assay: Growth inhibition of Sk-Hep1 cells (cell culture images); type: cell-based; details: 5 μM, 24 hours
[4] = system: Sk-Hep1 tumor; assay: HCC Sk-Hep1 xenograft model; type: in vivo, NSG mice; details: four-group study, 5.0 μg/g oral gavage
Excerpt: To further test whether the tumor growth inhibition effect of NC5 applied to other solid tumors, the HCC-Sk-Hep1cell line and PDAC-BXPC3 cell line xenograft models were used. Subcutaneous injection of 1.5×10^6 SK-Hep1 or BXPC3 cells in NSG mice, Six-ten days after tumor cell injection, the palpable tumor in NSG mice was confirmed.
To test the effects of the disclosed compounds on the xenograft mouse models, the HCC-Sk-Hep1 cell line xenograft model in NSG mice and 4T1-Luc orthotopic syngeneic breast tumor model in Balb/c mice was used. After confirming the palpable tumor in NSG or Balb/c mice. […] Compound III is referred to as “NC5-140-1” and Compound I is referred to as “NC5-140-2” in FIGS. 11A-11C.

[5] = Thermodynamic solubility; type: physicochemical; details: thermodynamic from solid
Description: In this example, solubility measurement assays were performed using a phosphate buffer (also referred to as “PB”) system and a water system to evaluate thermodynamic solubility. The PB system was at a pH of 7.4 to mimic in vivo environments. For the PB system, the values were determined to be NC5: Thermodynamic Solubility pH=7.4<0.42 μg/mL; Compound III: Thermodynamic Solubility pH=7.4<0.48 μg/mL; and Compound I: Thermodynamic Solubility pH=7.4<0.48 μg/mL. Results for the water assay were as follows: NC5: Thermodynamic Solubility Water<0.42 μg/mL; Compound III: Thermodynamic Solubility Water<0.48 μg/mL; and Compound I: Thermodynamic Solubility Water<0.48 μg/mL.

[6] = system: CrkL (phosphorylation at Y207 by Ab1); assay: AlphaScreen of Ab1 phosphorylation of CrkL at Y207; type: biochemical; details: compared to DMSO; positive control in the five libraries
[7] = molecular target: CrkL (Homo sapiens, UniProt P46109); type: biochemical
Chain of CrkL (P46109 whole entry, the tested form may be a part): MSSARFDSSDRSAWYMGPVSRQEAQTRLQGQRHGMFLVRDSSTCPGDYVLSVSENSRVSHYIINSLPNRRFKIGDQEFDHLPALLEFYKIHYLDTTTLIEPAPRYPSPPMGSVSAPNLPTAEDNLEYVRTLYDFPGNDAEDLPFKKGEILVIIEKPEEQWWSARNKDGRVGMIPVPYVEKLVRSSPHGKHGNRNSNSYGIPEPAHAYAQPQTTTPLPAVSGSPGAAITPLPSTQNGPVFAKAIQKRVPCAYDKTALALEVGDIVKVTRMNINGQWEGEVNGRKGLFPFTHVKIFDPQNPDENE
Excerpt: Single-molecule Fluorescence Resonance Energy Transfer (smFRET)—Single-molecule Fluorescence Resonance Energy Transfer (smFRET) was applied to monitor conformations of single molecules. CrkL has two cysteines (a relatively rare amino acid), one in its SH2 and another in SH3C domains. CrkL was mixed with a mixture of equal amounts of Alexa555-maleimide and Alexa647-maleimide (Invitrogen, USA) (10× over protein concentration) to randomly label the two cysteines. The labeled protein was purified from an unreacted dye by gel filtration. Molecules with exactly one donor and acceptor are identified in single-molecule data analysis and used for further analysis. […] The FRET change between non-phosphorylated CrkL and phosphorylated CrkL was measured. The dye-labeled protein was used in in vitro kinase assays with different drugs treatments as described above. smFRET measurements were performed with a prism-type total internal refection microscope (TIRF) where FRET efficiency is calculated from measured donor and acceptor intensities (Id and Ia, respectively) by FRET=Ia/(Id+Ia), as described previously. To surface immobilize 6×His tagged CrkL, the protein was added to the biotinylated 6×His antibody (Thermo Scientific Cat #: MA1-80087) bound to streptavidin, which was adsorbed to a quartz slide. A lipid bilayer was used to passivate the quartz surface. Phosphorylation was performed on the immobilized Crk in situ.
In intramolecular smFRET, non-radiative energy transfer occurs when two fluorophores attached to different parts of one molecule move close together. […] A cysteine-maleimide-based chemistry was used to label both CrkL and mutant (non-phosphorylatable) CrkL-Y207F. CrkL has a cysteine (a relatively rare amino acid) in its SH2 (labeled with AlexaFluor555) and SH3C (labeled with AlexaFluor647). […] Western Blot (WB) and immunoprecipitation (IP) was used to verify that labeled proteins retain the same gross functional properties as wild-type CrkL (e.g., are phosphorylatable and capable of binding SH2 and SH3 ligands). Briefly, site-specific labeled CrkL was mixed with Ab1 in the presence of Mg^2+ and ATP. A single AlphaScreen-identified candidate inhibitor was then added per assay.

[8] = system: IL-2 production from human PBMCs; assay: IL-2 ELISA, PBMCs; type: cell-based
Description: IL-2 ELISA—IL-2 in vitro enzyme-linked immunosorbent assay (ELISA) was used to measure human IL-2 productions. This assay was conducted per the user manual from the kit. In brief, human PBMCs were cultured in R10 medium with 0.5 μg/ml PHA. Then, 100 μl of the standard and sample was added to each well and incubated at 4° C. overnight. A prepared biotin antibody (100 μl) was added to each well and incubated for 1 hour at room temperature. Then, 100 μl prepared streptavidin solution was added and incubated for 45 minutes at room temperature. TMB one-step substrate reagent (100 μl) was then added to each well and incubated for 30 minutes at room temperature. Stop solution (50 μl) was then added to each well, and the results were quantified at 450 nm by Infinite M1000 Pro Plate Reader (Tecan, Switzerland) immediately.
Previous studies have shown that phosphorylated CrkL inhibits immune cell functions. It was then evaluated whether a pCrkL inhibitor could restore immune cell functions. To test this, the production of IL-2 from human PBMCs treated with different concentrations of Pomiferin was quantitated. Phytohemagglutinin (PHA) was used to stimulate the secretion of IL-2 as a positive control group. […] Similar results were obtained from the third donor (FIG. 5B, lower panel).

[9] = Mouse toxicity assays (serum ALT, AST, BUN, creatinine); type: in vivo, mice; details: at the indicated dosages
Description: Three mice were treated in each group. Blood samples were collected from every mouse in pre-treatment and post-treatment (20 days), and serum was obtained for alanine aminotransferase (ALT, SGPT, FIG. 12A), aspartate aminotransferase (AST, SGOT, FIG. 12B), blood urea nitrogen (BUN, FIG. 12C), and creatinine (FIG. 12D) tests to monitor liver and kidney toxicity. The normal Reference Ranges for ALT is 17-77 IU/L; AST is 54-298 IU/L; BUN is 18.5-33.3 mg/dL; Cr is 0-0.40 mg/dL.
Mouse toxicity assays—Blood was collected from the submandibular facial vein following IACUC guidelines (CMP, Houston Methodist Research Institute and Rutgers University) before and 20-day after the drug treatment. The Department of Veterinary Medicine & Surgery, MD Anderson Cancer Center, performed the clinical biochemistry and pharmacokinetics tests. Blood serum chemistry analysis included alanine transaminase (ALT), aspartate transaminase (AST), blood urea nitrogen (BUN), and creatinine level measurements.
Alanine aminotransferase (ALT, SGPT), aspartate aminotransferase (AST, SGOT), blood urea nitrogen (BUN), and creatinine levels were examined to determine liver and kidney toxicity of Pomiferin treatments in vivo. […] Nevertheless, these changes have no physiological significance because ALT, AST and BUN levels in all mice were within normal mouse reference ranges. […]

[10] = system: MDA-MB-231 cells; assay: MTT proliferation assay, MDA-MB-231; type: cell-based
Description: (§3) MTT assay—The MTT assay was used to detect cell proliferation. Briefly, cells were plated in a 96-well plate at a density of 50,000 cells/well in 200 μl of culture medium with candidate drugs to be tested (DMSO as a negative control). The treated cells were incubated for four hours a 37° C. with a 5% CO2 incubator to allow dark crystals to form at the bottom of the wells. After culturing for 48 hours, […] of MTT reagent was added to each well and mixed gently for one minute. After aspirating the culture medium from each well, 100 μl of crystal dissolving solution was added to each well and incubated for 10 minutes at RT. The signal was quantified by measuring the absorbance in each sample at 570 nm using a microplate reader.
(§4) Compound II is referred to as “NC5-SO2F” in FIGS. 7A-7C.
Cell proliferation was first determined by MTT assay as confirmation. […] CrkL is known to mediate the activation of both Raf/ERK and PI3K pathways. So, proteins that relate to these two pathways were utilized.

[11] = system: PDAC cells BXPC3; assay: MTT assay, BXPC3; type: cell-based; details: 5 uM
Description: as §3, §4

[12] = system: BXPC3 cells; assay: Propidium iodide staining, BXPC3; type: cell-based; details: various concentrations
Excerpt: as §4

CC(C)=CCc1c2c(c(O)c3c(=O)c(-c4ccc5c(c4)OS(=O)(=O)O5)coc13)C=CC(C)(C)O2 [Compound I]
toxic effect compared with NC5 (XTT viability) [1]: comparable toxic effect as NC5
toxic effect compared with NC5 (XTT viability) [2]: better toxic effect than NC5
toxic effect compared with NC5 (growth inhibition) [3]: better toxic effect than NC5
tumor growth [4]: inhibit tumor growth
median survival ([4]; vehicle 26 days): 28.5 days
solubility thermodynamic ([5]; aqueous buffer, phosphate buffer (PB) system, pH 7.4, read-out: Thermodynamic Solubility pH=7.4): < 0.48 µg/mL
solubility thermodynamic ([5]; water system, read-out: Thermodynamic Solubility Water): < 0.48 µg/mL

Cc1ccc(NC(=O)c2ccc(CN3CCN(C)CC3)cc2)cc1Nc1nccc(-c2cccnc2)n1 [Gleevec, imatinib mesylate]
Alpha signal decrease [6]: 80-90%
inhibition of the higher FRET caused by Ab1 (pCrkL) ([7]; CrkL + Ab1, Mg2+ and ATP): inhibited
FRET signal ([7]; CrkL about 0.4, CrkL+Ab1 about 0.6): 0.4
IL2 secretion ([8]; PBMCs from three healthy donors, treated overnight): did not inhibit IL2 secretion
IL-2 production ([8]; first donor, compared to DMSO): decreased IL-2 production
damage to the liver and kidneys [9]: little to no damage to the liver and kidneys

CC(C)=CCc1c2c(c3occ(-c4ccc5c(c4)OS(=O)(=O)O5)c(=O)c3c1OS(=O)(=O)F)C=CC(C)(C)O2 [Compound II]
toxicity compared with NC5 (MTT viability) ([10]; 5 μM): increased toxicity
killing effect compared with NC5 (MTT) ([10]; different concentrations): comparable killing effect as NC5
killing effect / toxicity compared with NC5 (MTT) [11]: stronger killing effect than NC5; also recorded: increased toxicity
killing effect by propidium iodide staining [12]: killing effect was further confirmed
